Several values for one entry are separate records, joined by “and”; a condition that tells them apart may be missing. Equal entries are not always repeated. Where two headings read alike, the source gives them in different places.
What was measured:
EP4R [1] = target: T1, EP4R (Homo sapiens, UniProt P35408); test: PRESTO-Tango β-arrestin2 recruitment assay; format: cell-based; conditions: for antagonist activity at EP4R: concentration-response
T1 construct: Tango fusion cassette (only 'tango' is printed); expressed in transfected cells; host or cells: HTLA cells (tTA-dependent luciferase reporter, β-arrestin2-TEV fusion)
T1 sequence (P35408 whole entry, the tested form may be a part): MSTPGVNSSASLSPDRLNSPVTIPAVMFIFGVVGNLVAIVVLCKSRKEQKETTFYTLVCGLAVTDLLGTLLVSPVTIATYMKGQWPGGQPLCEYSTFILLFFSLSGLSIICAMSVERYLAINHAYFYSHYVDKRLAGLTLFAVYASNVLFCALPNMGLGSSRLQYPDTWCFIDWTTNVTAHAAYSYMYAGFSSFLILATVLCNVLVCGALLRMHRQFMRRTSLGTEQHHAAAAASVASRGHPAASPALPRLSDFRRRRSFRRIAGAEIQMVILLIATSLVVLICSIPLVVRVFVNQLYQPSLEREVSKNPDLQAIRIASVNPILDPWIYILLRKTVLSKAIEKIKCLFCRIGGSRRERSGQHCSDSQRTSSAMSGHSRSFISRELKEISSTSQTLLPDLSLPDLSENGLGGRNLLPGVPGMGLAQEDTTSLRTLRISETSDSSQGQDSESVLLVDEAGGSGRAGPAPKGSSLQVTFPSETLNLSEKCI

wild-type EP4R = wild-type EP4R (Homo sapiens, UniProt P35408); test: cell-based
wild-type EP4R, sequence (P35408 whole entry): as the sequence (P35408 whole entry, the tested form may be a part) above

EP4R [2] = target: T1, EP4R; test: biochemical; format: binding
[3] = target: T2, Thromboxane A2 (TP) receptor (Homo sapiens, UniProt P21731); test: Functional cAMP production assay, TP receptor; format: cell-based; conditions: agonist alone, replicate columns
T2 sequence (P21731 1-343): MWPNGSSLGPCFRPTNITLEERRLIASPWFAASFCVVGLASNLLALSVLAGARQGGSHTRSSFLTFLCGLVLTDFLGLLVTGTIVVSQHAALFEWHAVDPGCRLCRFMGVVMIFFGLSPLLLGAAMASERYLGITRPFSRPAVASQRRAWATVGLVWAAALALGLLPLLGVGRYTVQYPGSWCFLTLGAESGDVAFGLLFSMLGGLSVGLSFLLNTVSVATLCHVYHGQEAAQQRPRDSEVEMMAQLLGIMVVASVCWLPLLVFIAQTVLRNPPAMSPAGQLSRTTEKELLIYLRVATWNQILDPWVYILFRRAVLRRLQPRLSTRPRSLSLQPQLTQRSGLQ

[4] = PRESTO-Tango -logIC50, antagonist mode, EC80 of PGE2
[5] = PRESTO-Tango IC50 (nM), antagonist mode, EC80 of PGE2
[6] = calculated using the Cheng Prusoff equation, read-out: PRESTO-Tango Ki*
[7] = calculated using the Cheng Prusoff equation, read-out: Arrestin-BRET Ki*
[8] = read-out: % displacement of 3HPGE2 at 10 µM, 10 µM compound vs 10 nM 3H-PGE2
[9] = 10 µM compound vs 10 nM 3H-PGE2, read-out: % displacement of 3HPGE2 at 10 µM

Compound: O=C(O)C1CCC2(CC1)CC(Nc1ncnc3[nH]c4cc(F)ccc4c13)C2 (stereo not shown) [Compound 134, OC(=O)C1CCC2(CC(C2)NC=3N=CN=C4NC=5C=C(F)C=CC5C34)CC1]
- IC50 (EP4R [1]; PRESTO-Tango IC50 (nM)): 203 nM
- Ki (EP4R [1]; PRESTO-Tango Ki* (nM)): 41 nM
- IC50 (wild-type EP4R): 155 nM
- Ki (wild-type EP4R): 31 nM

Compound: Cc1cc(C(=O)NC2CCCC(C(=O)O)CC2)c(C)n1-c1ccc2c(c1)OCCO2 (stereo not shown) [Compound 81, CC1=CC(C(=O)NC2CCCC(CC2)C(=O)O)=C(C)N1C=3C=CC=4OCCOC4C3]
- IC50 (EP4R [1]; [4]): 35500 nM
- IC50 (EP4R [1]; [5]): > 10000 nM
- Ki (EP4R [2]): 1170 nM

Compound: O=C(O)C1CCC2(CC1)CC(Nc1ncnc3[nH]c4ccccc4c13)C2 (stereo not shown) [Compound 73, OC(=O)C1CCC2(CC(C2)NC=3N=CN=C4NC=5C=CC=CC5C34)CC1]
- IC50 (EP4R [1]; PRESTO-Tango IC50 (nM)): 548 nM
- Ki (EP4R [1]; [6]): 110 nM
- IC50 (wild-type EP4R): 146 nM
- ligand efficiency (wild-type EP4R): 0.40 kcal/mol per “heavy” atom
- Ki (wild-type EP4R; [7]): 29 nM

Compound: CCCCC[C@H](O)/C=C/[C@@H]1[C@@H](C/C=C\CCCC(=O)O)[C@H]2CO[C@@H]1C2 [Compound U46619]
- Thromboxane Receptor response, U46619 alone ([3]; Log[Drug] -4.52): 101.694 and 84.622 and 99.9733
- Thromboxane Receptor response, U46619 alone ([3]; Log[Drug] -5): 98.3839 and 68.3538 and 108.147 and 95.8866 and 103.858 and 102.233 and 110.843 and 96.4513 and 100.005 and 98.4577 and 94.7206 and 109.077
- Thromboxane Receptor response, U46619 alone ([3]; Log[Drug] -5.52): 90.8596 and 73.8682 and 91.1581 and 74.0123 and 88.5137 and 87.193 and 76.6016 and 83.785 and 87.9816 and 86.9707 and 87.4905
- Thromboxane Receptor response, U46619 alone ([3]; Log[Drug] -6): 73.0479 and 61.333 and 83.5479 and 72.2309 and 75.4547 and 85.5682 and 93.0317 and 74.9476 and 75.1314 and 67.4734 and 82.2643
- Thromboxane Receptor response, U46619 alone ([3]; Log[Drug] -6.52): 53.1945 and 46.9117 and 56.4473 and 51.2866 and 54.1589 and 49.4671 and 53.794 and 49.5996 and 46.1382 and 46.7815 and 52.9845 and 63.6908
- Thromboxane Receptor response, U46619 alone ([3]; Log[Drug] -7): 26.7811 (2×) and 28.7836 and 26.1246 and 27.7368 and 28.2234 and 28.3716 and 27.3608 and 24.4507 and 37.3892
- Thromboxane Receptor response, U46619 alone ([3]; Log[Drug] -7.52): 6.98 and 11.6509 and 14.4408 and 11.9391 and 9.265 and 14.6944 and 12.5961 and 11.3627
- Thromboxane Receptor response, U46619 alone ([3]; Log[Drug] -8): 3.852 and 4.407 and 5.259 and 6.346 and 4.095 and 3.487 and 3.973 and 12.9637 and 7.1283 and 8.507 and 7.772 and 8.062
- Thromboxane Receptor response, U46619 alone ([3]; Log[Drug] -8.52): 0.6979 and 0.4256 and 1.264 and 1.489 and 0.4372 and 0.7674 and -0.6982 and -0.1162 and -0.5757 and -0.4127
- Thromboxane Receptor response, U46619 alone ([3]; Log[Drug] -9): 1.749 and 1.539 and -0.4127 and -0.8139 and 0.03755 and 0.2374 and 1.155 and 2.074 and -0.008962 and 0.4505 and -0.2293

Compound: CN1C(=O)C(=Cc2cccc(OCC(=O)O)c2)c2cc(Br)cnc21 [Compound 62, CN1C(=O)C(=CC=2C=CC=C(OCC(=O)O)C2)C=3C=C(Br)C=NC13]
- IC50 (EP4R [1]; [4]): 3470 nM
- IC50 (EP4R [1]; [5]): 3510 nM
- Ki (EP4R [1]; PRESTO-Tango Ki* (nM)): 702 nM
- antagonist activity at EP4R (EP4R [1]): dose-dependent antagonist activity
- inhibition at 10 µM (EP4R [2]; [8]): 17.2%

Compound: O=C(N[C@@H]1CC[C@@H](C(=O)O)CCC1(F)F)c1c[nH]c(-c2ccccc2)c1 [Compound 80, OC(=O)[C@@H]1CC[C@@H](NC(=O)C2=CNC(=C2)C=3C=CC=CC3)C(F)(F)CC1]
- IC50 (EP4R [1]; [4]): 18600 nM
- IC50 (EP4R [1]; [5]): > 10000 nM
- Ki (EP4R [2]): 1380 nM

Compound: O=C(O)C1CCC2(CC1)CC(Nc1ncnc3sc4ccccc4c13)C2 (stereo not shown) [Compound 72, OC(=O)C1CCC2(CC(C2)NC=3N=CN=C4SC=5C=CC=CC5C34)CC1]
- IC50 (EP4R [1]; PRESTO-Tango IC50 (nM)): 444 nM
- Ki (EP4R [1]; [6]): 89 nM
- IC50 (wild-type EP4R): 514 nM
- Ki (wild-type EP4R; [7]): 103 nM

Compound: O=C(O)Cc1ccc(NC(=O)c2cc(C3CC3)nc3ccc(F)cc23)cc1 [Compound 68, OC(=O)CC=1C=CC(NC(=O)C=2C=C(N=C3C=CC(F)=CC23)C4CC4)=CC1]
- IC50 (EP4R [1]; [4]): 11000 nM
- IC50 (EP4R [1]; [5]): > 10000 nM
- antagonist activity at EP4R (EP4R [1]): dose-dependent antagonist activity
- inhibition at 10 µM (EP4R [2]; [8]): 31.8%

Compound: N#Cc1ccc(OCc2cccc(C(=O)Nc3cccc(-c4nnn[nH]4)c3)c2)cc1 [Compound 70, O=C(NC=1C=CC=C(C1)C2=NN=NN2)C=3C=CC=C(COC=4C=CC(C#N)=CC4)C3]
- IC50 (EP4R [1]; PRESTO-Tango -logIC50): 14500 nM
- IC50 (EP4R [1]; PRESTO-Tango IC50 (nM)): > 10000 nM
- antagonist activity at EP4R (EP4R [1]): dose-dependent antagonist activity
- inhibition at 10 µM (EP4R [2]; [8]): 56.2%

Compound: O=C(O)C1CCC2(CC1)CC(Nc1ncnc3[nH]c4ccc(Br)cc4c13)C2 (stereo not shown) [Compound 135, OC(=O)C1CCC2(CC(C2)NC=3N=CN=C4NC=5C=CC(Br)=CC5C34)CC1]
- IC50 (EP4R [1]; PRESTO-Tango IC50 (nM)): 91.5 nM
- Ki (EP4R [1]; PRESTO-Tango Ki* (nM)): 18.3 nM
- IC50 (wild-type EP4R): 136 nM
- Ki (wild-type EP4R): 27.2 nM

Compound: O=C(O)CC1CN(C(=O)[C@@H]2C[C@]23CCOc2ccccc23)c2ccccc21 (stereo partly shown) [Compound 65, OC(=O)CC1CN(C(=O)[C@@H]2C[C@@]32CCOC=4C=CC=CC43)C=5C=CC=CC15]
- IC50 (EP4R [1]; [5]): 5160 nM
- Ki (EP4R [1]; PRESTO-Tango Ki* (nM), calculated using the Cheng Prusoff equation): 1030 nM
- antagonist activity at EP4R (EP4R [1]): dose-dependent antagonist activity
- inhibition at 10 µM (EP4R [2]; read-out: 3H-PGE2 Displacement by 10 µM of docking hits (Displacment), 10 µM compound, individual replicate values (Figure 1B source data)): 23.4%
- inhibition at 10 µM (EP4R [2]; [8]): 24%

Compound: Cn1c2ccccc2c2c(NC3CC4(CCC(C(=O)O)CC4)C3)ncnc21 (stereo not shown) [Compound 75, CN1C=2C=CC=CC2C=3C(NC4CC5(C4)CCC(CC5)C(=O)O)=NC=NC13]
- IC50 (EP4R [1]; PRESTO-Tango IC50 (nM)): 607 nM
- Ki (EP4R [1]; PRESTO-Tango Ki* (nM)): 121 nM
- IC50 (wild-type EP4R): 813 nM
- Ki (wild-type EP4R): 163 nM
- reduced potency of analog (wild-type EP4R): up to 10 fold

Compound: O=C(O)C1CCC2(CC1)CC(Nc1ncnc3sc4c(c13)CCCC4)C2 (stereo not shown) [Compound 71, OC(=O)C1CCC2(CC(C2)NC=3N=CN=C4SC=5CCCCC5C34)CC1]
- IC50 (EP4R [1]; PRESTO-Tango IC50 (nM)): 850 nM
- Ki (EP4R [1]; [6]): 170 nM
- antagonist activity at EP4R (EP4R [1]): dose-dependent antagonist activity
- inhibition at 10 µM (EP4R [2]; [9]): 62.9%
- IC50 (wild-type EP4R): 899 nM
- ligand efficiency (wild-type EP4R): 0.35 kcal/mol per “heavy” atom
- Ki (wild-type EP4R; [7]): 180 nM

Compound: O=C(NC1CCCC(C(=O)O)CC1)c1csc(C2CCCCC2)c1 (stereo not shown) [Compound 66, OC(=O)C1CCCC(CC1)NC(=O)C2=CSC(=C2)C3CCCCC3]
- IC50 (EP4R [1]; PRESTO-Tango -logIC50): 3720 nM
- IC50 (EP4R [1]; PRESTO-Tango IC50 (nM)): 3760 nM
- Ki (EP4R [1]; [6]): 752 nM
- antagonist activity at EP4R (EP4R [1]): dose-dependent antagonist activity
- inhibition at 10 µM (EP4R [2]; [9]): 25.6%
- IC50 (wild-type EP4R): 4050 nM
- Ki (wild-type EP4R; [7]): 810 nM

Compound: CN(Cc1nccn1C1CC1)c1ncnc2[nH]c(C(=O)O)cc12 [Compound 16, CN(CC1=NC=CN1C2CC2)C=3N=CN=C4NC(=CC34)C(=O)O]
- inhibition at 10 µM (EP4R [2]; [8]): -14.5%

Compound: O=C(O)CC[C@H]1C[C@@H](NC(=O)C(O)c2ccc(Cl)cc2Cl)C1 (stereo partly shown) [Compound 18, OC(C(=O)N[C@H]1C[C@@H](CCC(=O)O)C1)C=2C=CC(Cl)=CC2Cl]
- inhibition at 10 µM (EP4R [2]; [8]): -13.7%

Compound: O=C(NC1CCCC1C(=O)O)C(Sc1ccc(F)cc1)c1ccccc1 (stereo not shown) [Compound 28, OC(=O)C1CCCC1NC(=O)C(SC=2C=CC(F)=CC2)C=3C=CC=CC3]
- inhibition at 10 µM (EP4R [2]; [8]): -10.3%

Compound: CC(C(=O)Nc1cc(C#N)ccc1CCCC(=O)O)c1ccc(F)c2ccccc12 (stereo not shown) [ONO-AE3-208, reference compound]
- Ki (wild-type EP4R; [7]): 1.3 nM

Compound: O=C(O)CCN(Cc1ccccc1)C(=O)CC1(C(F)(F)F)CC1 [Compound 21, OC(=O)CCN(CC=1C=CC=CC1)C(=O)CC2(CC2)C(F)(F)F]
- inhibition at 10 µM (EP4R [2]; [8]): -12.3%

Compound: O=C(O)CCC(Cc1ccccc1)NS(=O)(=O)c1csc2ccccc12 (stereo not shown) [Compound 15, OC(=O)CCC(CC=1C=CC=CC1)NS(=O)(=O)C2=CSC=3C=CC=CC23]
- inhibition at 10 µM (EP4R [2]; [8]): -14.5%
